Measured values as given in PubChem BioAssay AID1963863 (Molecular Pharmacology Branch, DTP, NCI, 2024).

Test system: 931267-113-T-J1-PDC KRAS spheroid with HUVEC/MSC, viability
Experiment: Anticancer human tumor 931267-113-T-J1-PDC patient-derived colon adenocarcinoma cell line growth inhibition [KRAS2]
Conditions: for IC50: curve of first compound; for viability, T/C: stronger effect = lower value
In short: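 Combination screen of spheroid viability in tumor-cell co-cultures with endothelial (HUVEC) and mesenchymal stem cell stroma. Each agent was tested in half-log dilutions, topping at clinical Cmax or at 10 microM without a known Cmax.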

[1] = second compound 0.1 µM, first compound 0.000316 µM
[2] = second compound 0.1 µM, first compound 0.001 µM
[3] = second compound 0.1 µM, first compound 0.00316 µM
[4] = second compound 0.1 µM, first compound 0.01 µM
[5] = second compound 0.1 µM, first compound 0.0316 µM
[6] = second compound 0.1 µM, first compound 0.1 µM
[7] = second compound 0.316 µM, first compound 0.000316 µM
[8] = second compound 0.316 µM, first compound 0.001 µM
[9] = second compound 0.316 µM, first compound 0.00316 µM
[10] = second compound 0.316 µM, first compound 0.01 µM
[11] = second compound 0.316 µM, first compound 0.0316 µM
[12] = second compound 0.316 µM, first compound 0.1 µM
[13] = second compound 1 µM, first compound 0.000316 µM
[14] = second compound 1 µM, first compound 0.001 µM
[15] = second compound 1 µM, first compound 0.00316 µM
[16] = second compound 1 µM, first compound 0.01 µM
[17] = second compound 1 µM, first compound 0.0316 µM
[18] = second compound 1 µM, first compound 0.1 µM
[19] = second compound 3.16 µM, first compound 0.000316 µM
[20] = second compound 3.16 µM, first compound 0.001 µM
[21] = second compound 3.16 µM, first compound 0.00316 µM
[22] = second compound 3.16 µM, first compound 0.01 µM
[23] = second compound 3.16 µM, first compound 0.0316 µM
[24] = second compound 3.16 µM, first compound 0.1 µM
[25] = second compound 10 µM, first compound 0.000316 µM
[26] = second compound 10 µM, first compound 0.001 µM
[27] = second compound 10 µM, first compound 0.00316 µM
[28] = second compound 10 µM, first compound 0.01 µM
[29] = second compound 10 µM, first compound 0.0316 µM
[30] = second compound 10 µM, first compound 0.1 µM
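Note: compound exposure lasted 7 days before the readout.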
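Throughout, for viability, T/C: 100% = DMSO vehicle control viability.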

| Compound | IC50 (second compound 0.1 µM) | IC50 (second compound 0.316 µM) | IC50 (second compound 1 µM) | IC50 (second compound 3.16 µM) | IC50 (second compound 10 µM) | viability, T/C [1] | viability, T/C [2] | viability, T/C [3] | viability, T/C [4] | viability, T/C [5] | viability, T/C [6] | viability, T/C [7] | viability, T/C [8] | viability, T/C [9] | viability, T/C [10] | viability, T/C [11] | viability, T/C [12] | viability, T/C [13] | viability, T/C [14] | viability, T/C [15] | other results |
| --- | --- | --- | --- | --- | --- | --- | --- | --- | --- | --- | --- | --- | --- | --- | --- | --- | --- | --- | --- | --- | --- |
| CN(C)C/C=C/C(=O)Nc1cc2c(Nc3ccc(F)c(Cl)c3)ncnc2cc1O[C@H]1CCOC1 + C=CC(=O)N1CCN(c2nc(=O)n(-c3c(C)ccnc3C(C)C)c3nc(-c4c(O)cccc4F)c(F)cc23)C(C)C1 | > 100 nM | > 100 nM | > 100 nM | > 100 nM | > 100 nM | 103% | 91.6% | 76.1% | 83.5% | 115% | 117% | 97.5% | 105% | 95.1% | 96.1% | 117% | 98.6% | 110% | 121% | 83.7% | viability, T/C [16]: 90.8%; viability, T/C [17]: 84.9%; viability, T/C [18]: 96.5%; viability, T/C [19]: 138%; viability, T/C [20]: 128%; viability, T/C [21]: 117%; viability, T/C [22]: 95%; viability, T/C [23]: 126%; viability, T/C [24]: 105%; viability, T/C [25]: 146%; viability, T/C [26]: 138%; viability, T/C [27]: 119%; viability, T/C [28]: 99.2%; viability, T/C [29]: 110%; viability, T/C [30]: 108% |
| Cn1ncnc1[C@H]1c2n[nH]c(=O)c3cc(F)cc(c23)N[C@@H]1c1ccc(F)cc1 + COc1cc2nc(C)nc(NC(C)c3cc(N)cc(C(F)(F)F)c3)c2cc1OC1CCOC1 | > 100 nM | > 100 nM | > 100 nM | > 100 nM | < 0.316 nM | 103% | 88.5% | 86.6% | 107% | 88.5% | 74.4% | 83.9% | 108% | 83.6% | 96.3% | 92.4% | 77.9% | 108% | 99.8% | 79.7% | viability, T/C [16]: 88.3%; viability, T/C [17]: 83.4%; viability, T/C [18]: 95.4%; viability, T/C [19]: 69.5%; viability, T/C [20]: 87%; viability, T/C [21]: 61.6%; viability, T/C [22]: 67.6%; viability, T/C [23]: 63.5%; viability, T/C [24]: 52.4%; viability, T/C [25]: 0.8%; viability, T/C [26]: 0.47%; viability, T/C [27]: 0.63%; viability, T/C [28]: 1.27%; viability, T/C [29]: 0.75%; viability, T/C [30]: 1.25% |
